Results from patent publication US6409996B1, “Composition comprising one or more flavonoids, method of obtaining such composition and use thereof as UV-absorbing agent” (Flavone Sunproducts A/S, priority 1997, dated 2002).

Test: solubility experiment in water at room temperature
Format: physicochemical
Description: A solubility experiment was carried out in which commercially available naringin was dissolved in water at room temperature. The naringin was dissolved in an amount of 0.1 g/l corresponding to around 0.01 weight-%. A pulverous test sample of a composition obtained from Citrus Aurantium by the method according to the invention and comprising about 20 weight-% naringin was also dissolved in water at room temperature. The composition was dissolved in an amount of […], corresponding to a […] solution of naringin weight-%. Accordingly the solubility of naringin is 300 times higher in water when obtained by the method according to the invention and being in the composition obtained from Citrus Aurantium by said method, than commercially available naringin.

amount dissolved in water: 0.1 g/L
amount dissolved in water, as weight-% (commercially available naringin): around 0.01 weight-%
SMILES: C[C@@H]1O[C@@H](O[C@H]2[C@H](Oc3cc(O)c4c(c3)O[C@H](c3ccc(O)cc3)CC4=O)O[C@H](CO)[C@@H](O)[C@@H]2O)[C@H](O)[C@H](O)[C@H]1O [naringin, naringenin-7β-neohesperidoside; 5,7,4′-trihydroxyflavanone-7β-neohesperidoside]
